In patent US10913742B2, “Oxadiazolones as transient receptor potential channel inhibitors” (Genentech, Inc., priority 2017, dated 2021):
pIC50: −log10 of the molar value.

Target: human TRPA1 (Homo sapiens (Human), UniProt O75762)
Test: hTRPA1 CHO Ca2+ FLIPR assay (block of cinnamaldehyde induced calcium influx)
Format: cell-based
Conditions: CHO cells expressing TRPA1; 75 uM cinnamaldehyde; Hill coefficient fixed to 1.5; read-out: hTRPA1 (hTRPA1 CHO Ca2+ MAX EVO (IC50))
Description: CHO cells expressing TRPA1 were plated into 384-well plates, incubated overnight at 37° C., and loaded with BD calcium indicator dye for 1 hr at 37° C. followed by 15 minutes at room temperature. The assay buffer was Hank's Balanced Salt Solution (HBSS) containing 20 mM HEPES (pH readjusted to 7.4) along with 0.02% BSA.
Following dye load and plate cool down, compounds were added to the cells using FLIPR Tetra. Plates were then incubated with compounds for 20 minutes at room temperature prior to adding agonist.
The IC50 results were fit with a standard Hill function, keeping the Hill coefficient (n) fixed to 1.5. Fixing the Hill coefficient will generally reduce variability of the IC50 determination. The IC50 results were individually examined to make sure the MIN and MAX points were set correctly prior to validation of the results.

human TRPA1, sequence (O75762 whole entry): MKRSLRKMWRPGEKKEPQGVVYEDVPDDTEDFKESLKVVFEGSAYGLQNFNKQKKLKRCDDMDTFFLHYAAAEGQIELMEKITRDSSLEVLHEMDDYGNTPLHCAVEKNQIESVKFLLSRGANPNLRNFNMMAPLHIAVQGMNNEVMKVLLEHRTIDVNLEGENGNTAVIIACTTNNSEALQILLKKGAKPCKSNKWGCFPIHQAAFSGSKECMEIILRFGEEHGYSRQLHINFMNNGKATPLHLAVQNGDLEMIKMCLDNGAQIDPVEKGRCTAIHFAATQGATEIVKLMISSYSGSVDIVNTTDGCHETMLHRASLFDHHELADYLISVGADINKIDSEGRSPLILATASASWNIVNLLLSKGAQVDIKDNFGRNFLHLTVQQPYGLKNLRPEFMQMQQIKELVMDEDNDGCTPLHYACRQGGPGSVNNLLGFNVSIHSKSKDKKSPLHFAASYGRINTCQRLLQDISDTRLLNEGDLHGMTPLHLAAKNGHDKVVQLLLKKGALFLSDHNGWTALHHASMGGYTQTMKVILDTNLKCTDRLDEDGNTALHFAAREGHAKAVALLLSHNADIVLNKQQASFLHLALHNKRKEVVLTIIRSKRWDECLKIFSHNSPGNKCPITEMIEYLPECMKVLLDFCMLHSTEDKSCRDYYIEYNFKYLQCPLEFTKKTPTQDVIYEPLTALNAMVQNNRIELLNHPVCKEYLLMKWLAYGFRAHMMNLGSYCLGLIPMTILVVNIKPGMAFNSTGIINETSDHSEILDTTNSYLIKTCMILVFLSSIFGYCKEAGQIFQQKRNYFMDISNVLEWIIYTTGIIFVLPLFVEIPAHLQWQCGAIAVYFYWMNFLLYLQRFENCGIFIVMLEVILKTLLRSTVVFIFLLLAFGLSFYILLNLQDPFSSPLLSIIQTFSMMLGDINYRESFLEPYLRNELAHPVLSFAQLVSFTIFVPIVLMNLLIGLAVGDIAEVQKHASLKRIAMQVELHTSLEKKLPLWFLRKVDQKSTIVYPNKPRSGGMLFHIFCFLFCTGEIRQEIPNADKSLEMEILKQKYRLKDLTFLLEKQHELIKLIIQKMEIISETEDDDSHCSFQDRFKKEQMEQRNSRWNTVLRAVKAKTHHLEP

| pIC50 | SMILES |
| --- | --- |
| 8.32 | Cc1ccnc2ncn(Cc3nn([C@@H]4CC[C@@H](c5ccc(F)cc5)C4)c(=O)o3)c(=O)c12 (racemic) [compound 67, 5-[(5-methyl-4-oxo-pyrido[2,3-d]pyrimidin-3-yl)methyl]-3-[rac-(1R,3R)-3-(4-fluorophenyl)cyclopentyl]-1,3,4-oxadiazol-2-one] |
| 7.12 | Cn1cnc2ncn(Cc3nn([C@@H]4CC[C@@H](c5cccc(F)c5)C4)c(=O)o3)c(=O)c21 (racemic) [compound 76, 5-[(7-methyl-6-oxo-purin-1-yl)methyl]-3-[rac-(1R,3R)-3-(3-fluorophenyl)cyclopentyl]-1,3,4-oxadiazol-2-one] |
| 7.39 | O=c1c2cccnc2ncn1Cc1nn([C@@H]2CC[C@@H](c3ccc(F)cc3)C2)c(=O)o1 (racemic) [compound 78, 5-[(4-oxopyrido[2,3-d]pyrimidin-3-yl)methyl]-3-[rac-(1R,3R)-3-(4-fluorophenyl)cyclopentyl]-1,3,4-oxadiazol-2-one] |
| 7.92 | Cc1ccnc2ncn(Cc3nn(C[C@H](F)c4ccc(OC(F)F)cc4)c(=O)o3)c(=O)c12 (racemic) [compound 80, 5-[(5-methyl-4-oxo-pyrido[2,3-d]pyrimidin-3-yl)methyl]-3-[rac-(2R)-2-[4-(difluoromethoxy)phenyl]-2-fluoro-ethyl]-1,3,4-oxadiazol-2-one] |
| 7.30 | O=c1c2cccnc2ncn1Cc1nn(C[C@H](F)c2ccc(OC(F)F)cc2)c(=O)o1 (racemic) [compound 81, 5-[(4-oxopyrido[2,3-d]pyrimidin-3-yl)methyl]-3-[rac-(2R)-2-[4-(difluoromethoxy)phenyl]-2-fluoro-ethyl]-1,3,4-oxadiazol-2-one] |
| 7.36 | Cn1cnc2ncn(Cc3nn([C@@H]4C[C@@H](F)[C@@H](c5ccc(Cl)cc5)C4)c(=O)o3)c(=O)c21 (racemic) [compound 82, 5-[(7-methyl-6-oxo-purin-1-yl)methyl]-3-[rac-(1S,3R,4R)-3-(4-chlorophenyl)-4-fluoro-cyclopentyl]-1,3,4-oxadiazol-2-one] |
| 6.78 | Cn1cnc2ncn(Cc3nn(C[C@H](F)c4cccc(Cl)c4)c(=O)o3)c(=O)c21 (racemic) [compound 84, 5-[(7-methyl-6-oxo-purin-1-yl)methyl]-3-[rac-(2R)-2-(3-chlorophenyl)-2-fluoro-ethyl]-1,3,4-oxadiazol-2-one] |
| 7.36 | Cn1c(=O)ccc2ncn(Cc3nn(C[C@H](F)c4ccc(Cl)cc4)c(=O)o3)c(=O)c21 (racemic) [compound 87, 5-methyl-3-[[5-oxo-4-[rac-(2R)-2-(4-chlorophenyl)-2-fluoro-ethyl]-1,3,4-oxadiazol-2-yl]methyl]pyrido[3,2-d]pyrimidine-4,6-dione] |
| 7.31 | O=c1c2cccnc2ncn1Cc1nn(C[C@H](F)c2ccc(Cl)cc2)c(=O)o1 (racemic) [compound 95, 5-[(4-oxopyrido[2,3-d]pyrimidin-3-yl)methyl]-3-[rac-(2R)-2-(4-chlorophenyl)-2-fluoro-ethyl]-1,3,4-oxadiazol-2-one] |
| 7.44 | Cn1cnc2ncn(Cc3nn([C@@H]4CC[C@@H](c5cccc(Cl)c5)C4)c(=O)o3)c(=O)c21 (racemic) [compound 101, 5-[(7-methyl-6-oxo-purin-1-yl)methyl]-3-[rac-(1R,3R)-3-(3-chlorophenyl)cyclopentyl]-1,3,4-oxadiazol-2-one] |
| 6.81 | Cn1cnc2ncn(Cc3nn([C@H]4CC[C@H](c5ccccc5)C4)c(=O)o3)c(=O)c21 (racemic) [compound 108, 5-[(7-methyl-6-oxo-purin-1-yl)methyl]-3-[rac-(1S,3S)-3-phenylcyclopentyl]-1,3,4-oxadiazol-2-one] |
| 7.72 | Cn1cnc2ncn(Cc3nn(C[C@H](F)c4ccc(OC(F)(F)F)cc4)c(=O)o3)c(=O)c21 (racemic) [compound 109, 5-[(7-methyl-6-oxo-purin-1-yl)methyl]-3-[rac-(2R)-2-fluoro-2-[4-(trifluoromethoxy)phenyl]ethyl]-1,3,4-oxadiazol-2-one] |
| 7.09 | Cn1cnc2ncn(Cc3nn(C[C@H](F)c4ccc(OC(F)F)cc4)c(=O)o3)c(=O)c21 (racemic) [compound 110, 5-[(7-methyl-6-oxo-purin-1-yl)methyl]-3-[rac-(2R)-2-[4-(difluoromethoxy)phenyl]-2-fluoro-ethyl]-1,3,4-oxadiazol-2-one] |
| 6.74 | Cc1ccnc2ncn(Cc3nn(CC(F)c4ccc(Cl)cc4)c(=O)o3)c(=O)c12 (stereo in doubt) [compound 33, 5-[(5-methyl-4-oxo-pyrido[2,3-d]pyrimidin-3-yl)methyl]-3-[(2R)-2-(4-chlorophenyl)-2-fluoro-ethyl]-1,3,4-oxadiazol-2-one] |
| 8.30 | Cc1ccnc2ncn(Cc3nn(CC(F)c4ccc(Cl)cc4)c(=O)o3)c(=O)c12 (stereo in doubt) [compound 34, 5-[(5-methyl-4-oxo-pyrido[2,3-d]pyrimidin-3-yl)methyl]-3-[(2S)-2-(4-chlorophenyl)-2-fluoro-ethyl]-1,3,4-oxadiazol-2-one] |
| 8.15 | Cn1cnc2ncn(Cc3nn(CC(F)c4ccc5ccccc5c4)c(=O)o3)c(=O)c21 (stereo in doubt) [compound 38, 5-[(7-methyl-6-oxo-purin-1-yl)methyl]-3-[(2S)-2-fluoro-2-(2-naphthyl)ethyl]-1,3,4-oxadiazol-2-one] |

| pIC50 | SMILES |
| --- | --- |
| 7.02 | Cn1cnc2ncn(Cc3nn(CCc4ccc(Cl)cc4)c(=O)o3)c(=O)c21 [compound 1, 3-[2-(4-chlorophenyl)ethyl]-5-[(7-methyl-6-oxo-purin-1-yl)methyl]-1,3,4-oxadiazol-2-one] |
| 6.68 | Cn1cnc2ncn(Cc3nn(CCc4ccc(OC(F)F)cc4)c(=O)o3)c(=O)c21 [compound 2, 3-(4-(difluoromethoxy)phenethyl)-5-((7-methyl-6-oxo-6H-purin-1(7H)-yl)methyl)-1,3,4-oxadiazol-2(3H)-one] |
| 7.36 | Cn1cnc2ncn(Cc3nn(CCc4ccc(Br)cc4)c(=O)o3)c(=O)c21 [compound 3, 3-(4-bromophenethyl)-5-((7-methyl-6-oxo-6H-purin-1(7H)-yl)methyl)-1,3,4-oxadiazol-2(3H)-one] |
| 5.98 | Cn1cnc2ncn(Cc3nn(CCc4ccccc4)c(=O)o3)c(=O)c21 [compound 4, 5-((7-methyl-6-oxo-6H-purin-1(7H)-yl)methyl)-3-phenethyl-1,3,4-oxadiazol-2(3H)-one] |
| 5.93 | Cn1cnc2ncn(Cc3nn(CCc4ccc(C#N)cc4)c(=O)o3)c(=O)c21 [compound 5, 4-(2-(5-((7-methyl-6-oxo-6H-purin-1(7H)-yl)methyl)-2-oxo-1,3,4-oxadiazol-3(2H)-yl)ethyl)benzonitrile] |
| 7.89 | Cc1cncc2ncn(Cc3nn(CCc4ccc(Cl)cc4)c(=O)o3)c(=O)c12 [compound 6, 3-(4-chlorophenethyl)-5-((5-methyl-4-oxopyrido[3,4-d]pyrimidin-3(4H)-yl)methyl)-1,3,4-oxadiazol-2(3H)-one] |
| 7.92 | Cc1ccnc2ncn(Cc3nn(CCc4ccc(Cl)cc4)c(=O)o3)c(=O)c12 [compound 7, 3-[2-(4-chlorophenyl)ethyl]-5-[(5-methyl-4-oxo-pyrido[2,3-d]pyrimidin-3-yl)methyl]-1,3,4-oxadiazol-2-one] |
| 6.78 | Cc1ccnc2ncn(Cc3nn(CCc4ccc(C#N)cc4)c(=O)o3)c(=O)c12 [compound 8, 4-[2-[5-[(5-methyl-4-oxo-pyrido[2,3-d]pyrimidin-3-yl)methyl]-2-oxo-1,3,4-oxadiazol-3-yl]ethyl]benzonitrile] |
| 6.24 | Cn1cnc2ncn(Cc3nn(CCc4ccc(C(F)(F)F)cc4)c(=O)o3)c(=O)c21 [compound 9, 5-((7-methyl-6-oxo-6H-purin-1(7H)-yl)methyl)-3-(4-(trifluoromethyl)phenethyl)-1,3,4-oxadiazol-2(3H)-one] |
| 7.07 | Cn1cnc2ncn(Cc3nn(CCc4ccc(OC(F)(F)F)cc4)c(=O)o3)c(=O)c21 [compound 10, 5-((7-methyl-6-oxo-6H-purin-1(7H)-yl)methyl)-3-(4-(trifluoromethoxy)phenethyl)-1,3,4-oxadiazol-2(3H)-one] |
| 6.56 | COc1ccc(CCn2nc(Cn3cnc4ncn(C)c4c3=O)oc2=O)cc1 [compound 11, 3-(4-methoxyphenethyl)-5-((7-methyl-6-oxo-6H-purin-1(7H)-yl)methyl)-1,3,4-oxadiazol-2(3H)-one] |
| 7.39 | Cn1cnc2ncn(Cc3nn(CCc4ccc5ccccc5c4)c(=O)o3)c(=O)c21 [compound 12, 5-((7-methyl-6-oxo-6H-purin-1(7H)-yl)methyl)-3-(2-(naphthalen-2-yl)ethyl)-1,3,4-oxadiazol-2(3H)-one] |
| 6.58 | Cc1nc(C)n2ncn(Cc3nn(CCc4ccc(Cl)cc4)c(=O)o3)c(=O)c12 [compound 13, 3-(4-chlorophenethyl)-5-((5,7-dimethyl-4-oxoimidazo[1,5-f][1,2,4]triazin-3(4H)-yl)methyl)-1,3,4-oxadiazol-2(3H)-one] |
| 7.47 | Cn1cnc2ncn(Cc3nn(C[C@H](F)c4ccc(Cl)cc4)c(=O)o3)c(=O)c21 [compound 14, (R)-3-(2-(4-chlorophenyl)-2-fluoroethyl)-5-((7-methyl-6-oxo-6H-purin-1(7H)-yl)methyl)-1,3,4-oxadiazol-2(3H)-one] |
| 5.42 | Cn1cnc2ncn(Cc3nn(C[C@@H](F)c4ccc(Cl)cc4)c(=O)o3)c(=O)c21 [compound 15, (S)-3-(2-(4-chlorophenyl)-2-fluoroethyl)-5-((7-methyl-6-oxo-6H-purin-1(7H)-yl)methyl)-1,3,4-oxadiazol-2(3H)-one] |
| 6.45 | Cn1cnc2ncn(Cc3nn(CCc4ccc(C5CC5)cc4)c(=O)o3)c(=O)c21 [compound 16, 3-(4-cyclopropylphenethyl)-5-((7-methyl-6-oxo-6H-purin-1(7H)-yl)methyl)-1,3,4-oxadiazol-2(3H)-one] |
